Read-outs that look alike come from different tables or passages of the source.
Tests used:
WT/R232 STING protein = target: T1, WT/R232 STING protein (Homo sapiens, UniProt Q86WV6, H232R); experiment: Luciferase reporter assay in HEK293T-hSTING-Luciferase cells (R232); type: cell-based; settings: 20 hr stimulation, EC50 range
T1 construct: host or cells: HEK293T
In short: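 Clonal HEK293T cells stably expressing human STING R232 plus an ISRE/ISG54-driven secreted luciferase reporter, stimulated with compounds for 20 hr. Luciferase in supernatant read by luminescence; activity given as fold-induction over baseline.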

IRF pathway = experiment: Reporter gene expression assay for IRF axis in THP1-Dual cells (secreted Lucia luciferase); type: cell-based, human; settings: 20 hr stimulation, QUANTI-Luc, EC50 range, read-out: THP-IRF activity
Experimental: (§1) THP1-Dual™ cells (Invivogen) were derived from the human THP-1 monocyte cell line by stable integration of two inducible reporter constructs. As a result, THP1-Dual™ cells allow the simultaneous study of the NF-κB pathway, by monitoring the activity of secreted SEAP, and the IRF pathway, by assessing the activity of a secreted luciferase (Lucia). […] THP1-Dual™ cells were seeded in 384-well plates in growth medium and stimulated with novel compounds. After 20 hr of stimulation supernatant were removed and reporter proteins were readily measured in the cell culture supernatant using QUANTI-Blue™ (Invivogen), a SEAP detection reagent, and QUANTI-Luc™ (Invivogen), a luciferase detection reagent on a Spectramax i3X luminometer. EC50 value ranges for exemplary compounds tested in the above assay are given.

NF-κB pathway = experiment: Reporter gene expression assay for NFκB axis in THP1-Dual cells (secreted SEAP); type: cell-based, human; settings: 20 hr stimulation, QUANTI-Blue SEAP, EC50 range, read-out: THP-NFKB activity
Experimental: as §1

hSTING (HAQ) = target: T2, hSTING (HAQ) (Homo sapiens, UniProt Q86WV6, G230A/H232R/R293Q/R71H); experiment: Luciferase reporter assay in HEK293T-hSTING-Luciferase cells (HAQ polymorph); type: cell-based; settings: EC50 range
T2 construct: host or cells: HEK293T
T2 sequence (Q86WV6 whole entry R71H/G230A/H232R/R293Q): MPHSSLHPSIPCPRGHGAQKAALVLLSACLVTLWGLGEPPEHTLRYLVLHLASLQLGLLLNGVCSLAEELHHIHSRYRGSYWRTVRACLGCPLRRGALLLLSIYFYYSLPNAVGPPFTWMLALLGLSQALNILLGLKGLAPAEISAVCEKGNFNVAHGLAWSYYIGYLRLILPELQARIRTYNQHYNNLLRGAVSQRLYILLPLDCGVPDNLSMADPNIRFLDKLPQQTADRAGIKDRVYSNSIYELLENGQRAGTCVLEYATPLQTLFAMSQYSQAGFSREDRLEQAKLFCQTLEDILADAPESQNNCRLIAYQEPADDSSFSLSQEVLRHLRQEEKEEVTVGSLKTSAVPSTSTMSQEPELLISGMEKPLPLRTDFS
Text: (§2) • a) Stable STING expressing cells—Stable HEK293T STING-expressing cell lines were generated using plasmids purchased from Invivogen, CA, USA, that contain STING cDNA cloned into the pUNO-1 vector under hEF1-HTLV promoter and containing the Blasticidin selection cassette. The plasmids hSTING (R232), hSTING (H232), hSTING (HAQ) were directly procured from Invivogen while hSTING (AQ) and hSTING (Q) were derived from hSTING (HAQ) and hSTING (R232) plasmids respectively by using a PCR based site directed mutagenesis method. These vectors were individually transfected into HEK293T cells using Lipofectamine (Invitrogen) and transfected cells were selected under Blasticidin selection. These transfected cells were further subjected to clonal selection using the limiting dilution method to obtain clonally pure populations of HEK cells transfected with each of the above mentioned human STING variants. Only those clones were selected in which ligand independent activation of STING was minimal. • b) Stable Luciferase reporter gene expressing cells—Stable HEK293T Luciferase reporter gene expressing cell lines were generated using pCDNA4 plasmids under an IRF-inducible promoter. This promoter is comprised of five tandem interferon-stimulated response elements (ISRE) fused to an ISG54 minimal promoter. This vector was transfected into HEK293T cells using Lipofectamine (Invitrogen) and transfected cells were selected under Zeocin selection. These transfected cells were further subjected to clonal selection using the limiting dilution method to obtain clonally pure populations of HEK cells transfected the Luciferase reporter construct. Only those clones were selected in which ligand independent induction of luciferase was minimal.
(§3) 5×10^5 clonally selected HEK293T-hSTING-Luciferase cells were seeded in 384-well plates in growth medium and stimulated with novel compounds. After 20 hr of stimulation supernatant were removed and secretary reporter gene activity were measured using the Quanti-Luc detection system (Invivogen) on a Spectramax i3X luminometer.
(§4) The 5 major polymorphisms of human STING are shown in FIG. 1, with their prevalence in human populations indicated.

hSTING (H232) = target: T3, hSTING (H232) (Homo sapiens, UniProt Q86WV6); experiment: Luciferase reporter assay in HEK293T-hSTING-Luciferase cells (H232/REF polymorph); type: cell-based; settings: EC50 range
T3 construct: host or cells: HEK293T
T3 sequence (Q86WV6 whole entry): as the sequence (Q86WV6 whole entry R71H/G230A/H232R/R293Q) above, with H71R, A230G, R232H, Q293R counted along it
Text: as §2, §3, §4

T1 sequence (Q86WV6 whole entry H232R): as the sequence (Q86WV6 whole entry R71H/G230A/H232R/R293Q) above, with H71R, A230G, Q293R counted along it

Row | Compound | EC50 (WT/R232 STING protein) | EC50 (IRF pathway; Homo sapiens, THP1-Dual, 20 h) | EC50 (NF-κB pathway; Homo sapiens, THP1-Dual, 20 h) | EC50 (hSTING (HAQ)) | EC50 (hSTING (H232)) | EC50 (IRF pathway) | EC50 (NF-κB pathway)
1 | Cc1cc(CN2C(=O)C(C)(C)c3ccc(C(=O)NCc4cc5ccccc5o4)cc32)n(C)n1 [Example 107, N-(benzofuran-2-ylmethyl)-1-((1,3-dimethyl-1H-pyrazol-5-yl)methyl)-3,3-dimethyl-2-oxoindoline-6-carboxamide] | ≤ 1000 nM | 1000 to 10000 nM | 1000 to 10000 nM | 1000 to 10000 nM | 1000 to 10000 nM | – | –
2 | COc1cc(F)cc(CN2C(=O)C(C)(C)c3ccc(C(=O)NCc4c(F)cc(F)cc4F)cc32)c1 [Example 89, 1-(3-fluoro-5-methoxybenzyl)-3,3-dimethyl-2-oxo-N-(2,4,6-trifluorobenzyl)indoline-6-carboxamide] | ≤ 1000 nM | 1000 to 10000 nM | 1000 to 10000 nM | ≤ 1000 nM | ≤ 1000 nM | – | –
3 | CC1(C)C(=O)N(Cc2c(F)cccc2Cl)c2cc(C(=O)NCc3ccccc3F)ccc21 [Example 72, 1-(2-chloro-6-fluorobenzyl)-N-(2-fluorobenzyl)-3,3-dimethyl-2-oxoindoline-6-carboxamide] | ≤ 1000 nM | > 10000 nM | 1000 to 10000 nM | 1000 to 10000 nM | 1000 to 10000 nM | – | –
4 | CC1(C)C(=O)N(Cc2c(F)cccc2OC(F)F)c2cc(C(=O)NCc3c(F)cc(F)cc3F)ccc21 [Example 111, 1-(2-(difluoromethoxy)-6-fluorobenzyl)-3,3-dimethyl-2-oxo-N-(2,4,6-trifluorobenzyl)indoline-6-carboxamide] | ≤ 1000 nM | 1000 to 10000 nM | 1000 to 10000 nM | ≤ 1000 nM | ≤ 1000 nM | – | –
5 | CC1(C)C(=O)N(Cc2c(F)cccc2Cl)c2cc(C(=O)NCc3ccc4occc4c3)ccc21 [Example 71, N-(benzofuran-5-ylmethyl)-1-(2-chloro-6-fluorobenzyl)-3,3-dimethyl-2-oxoindoline-6-carboxamide] | 1000 to 10000 nM | > 10000 nM | 1000 to 10000 nM | 1000 to 10000 nM | 1000 to 10000 nM | – | –
6 | CC1(C)C(=O)N(Cc2c(F)cccc2Cl)c2cc(C(=O)NCc3c(F)cc(F)cc3F)ccc21 [Example 2, 1-(2-chloro-6-fluorobenzyl)-3,3-dimethyl-2-oxo-N-(2,4,6-trifluorobenzyl)indoline-6-carboxamide] | ≤ 1000 nM | 1000 to 10000 nM | 1000 to 10000 nM | ≤ 1000 nM | ≤ 1000 nM | – | –
7 | CC1(C)C(=O)N(Cc2cc(F)cc(F)c2)c2cc(C(=O)NCc3c(F)cc(F)cc3F)ccc21 [Example 5, 1-(3,5-difluorobenzyl)-3,3-dimethyl-2-oxo-N-(2,4,6-trifluorobenzyl)indoline-6-carboxamide] | ≤ 1000 nM | 1000 to 10000 nM | 1000 to 10000 nM | ≤ 1000 nM | ≤ 1000 nM | – | –
8 | Cc1ccc(CNC(=O)c2ccc3c(c2)N(Cc2c(F)cccc2Cl)C(=O)C3(C)C)o1 [Example 13, 1-(2-chloro-6-fluorobenzyl)-3,3-dimethyl-N-((5-methylfuran-2-yl)methyl)-2-oxoindoline-6-carboxamide] | ≤ 1000 nM | > 10000 nM | > 10000 nM | 1000 to 10000 nM | 1000 to 10000 nM | – | –
9 | CC1(C)C(=O)N(Cc2c(F)cccc2Cl)c2cc(C(=O)NCc3cc4cc(F)ccc4o3)ccc21 [Example 75, 1-(2-chloro-6-fluorobenzyl)-N-((5-fluorobenzofuran-2-yl)methyl)-3,3-dimethyl-2-oxoindoline-6-carboxamide] | ≤ 1000 nM | 1000 to 10000 nM | 1000 to 10000 nM | ≤ 1000 nM | ≤ 1000 nM | – | –
10 | CC1(C)C(=O)N(Cc2c(F)cccc2Cl)c2cc(C(=O)NCc3c(F)cccc3F)ccc21 [Example 27, 1-(2-chloro-6-fluorobenzyl)-N-(2,6-difluorobenzyl)-3,3-dimethyl-2-oxoindoline-6-carboxamide] | ≤ 1000 nM | 1000 to 10000 nM | 1000 to 10000 nM | ≤ 1000 nM | 1000 to 10000 nM | – | –
11 | CC1(Cl)C(=O)N(Cc2cc(F)cc(F)c2)c2cc(C(=O)NCc3c(F)cc(F)cc3F)ccc21 (stereo not shown) [Example 148] | 1000 to 10000 nM | – | – | 1000 to 10000 nM | 1000 to 10000 nM | > 10000 nM | > 10000 nM
12 | CC1(N=[N+]=[N-])C(=O)N(Cc2c(F)cccc2Cl)c2cc(C(=O)NCc3c(F)cc(F)cc3F)ccc21 (stereo not shown) [Example 153, 3-azido-1(2-chloro-6-fluorobenzyl)-3-methyl-2-oxo-N-(2,4,6-trifluorobenzyl)indoline-6-carboxamide] | ≤ 1000 nM | > 10000 nM | 1000 to 10000 nM | 1000 to 10000 nM | 1000 to 10000 nM | – | –
13 | CC1(C#N)C(=O)N(Cc2c(F)cccc2Cl)c2cc(C(=O)NCc3c(F)cc(F)cc3F)ccc21 (stereo not shown) [Example 165, 1-(2-chloro-6-fluorobenzyl)-3-cyano-3-methyl-2-oxo-N-(2,4,6-trifluorobenzyl)indoline-6-carboxamide] | ≤ 1000 nM | – | – | ≤ 1000 nM | ≤ 1000 nM | > 10000 nM | 1000 to 10000 nM
14 | Cc1cccc(CN2C(=O)C(C)(C)c3ccc(C(=O)NCc4c(F)cc(F)cc4F)cc32)c1F [Example 73, 1-(2-fluoro-3-methylbenzyl)-3,3-dimethyl-2-oxo-N-(2,4,6-trifluorobenzyl)indoline-6-carboxamide] | ≤ 1000 nM | 1000 to 10000 nM | 1000 to 10000 nM | ≤ 1000 nM | ≤ 1000 nM | – | –
15 | CC1(C#N)C(=O)N(Cc2c(F)cccc2Cl)c2cc(C(=O)NCc3c(F)cc(F)cc3F)ccc21 (stereo not shown) [Example 164, 1-(2-chloro-6-fluorobenzyl)-3-cyano-3-methyl-2-oxo-N-(2,4,6-trifluorobenzyl)indoline-6-carboxamide] | ≤ 1000 nM | > 10000 nM | – | 1000 to 10000 nM | ≤ 1000 nM | – | > 10000 nM
16 | Cc1ccc(CNC(=O)c2ccc3c(c2)N(Cc2c(C)cccc2F)C(=O)C3(C)C)o1 [Example 63, 1-(2-fluoro-6-methylbenzyl)-3,3-dimethyl-N-((5-methylfuran-2-yl)methyl)-2-oxoindoline-6-carboxamide] | ≤ 1000 nM | > 10000 nM | > 10000 nM | 1000 to 10000 nM | 1000 to 10000 nM | – | –
17 | Cc1cc(CN2C(=O)C(C)(C)c3ccc(C(=O)NCc4c(F)cc(F)cc4F)cc32)no1 [Example 70, 3,3-dimethyl-1-((5-methylisoxazol-3-yl)methyl)-2-oxo-N-(2,4,6-trifluorobenzyl)indoline-6-carboxamide] | 1000 to 10000 nM | > 10000 nM | > 10000 nM | 1000 to 10000 nM | 1000 to 10000 nM | – | –
18 | CC1(C)C(=O)N(Cc2c(F)cccc2F)c2cc(C(=O)NCc3c(F)cc(F)cc3F)ccc21 [Example 109, 1-(2,6-difluorobenzyl)-3,3-dimethyl-2-oxo-N-(2,4,6-trifluorobenzyl)indoline-6-carboxamide] | ≤ 1000 nM | 1000 to 10000 nM | 1000 to 10000 nM | ≤ 1000 nM | ≤ 1000 nM | – | –
19 | CC1(C)C(=O)N(Cc2c(F)cccc2Cl)c2cc(C(=O)NCc3ccc(F)cc3F)ccc21 [Example 26, 1-(2-chloro-6-fluorobenzyl)-N-(2,4-difluorobenzyl)-3,3-dimethyl-2-oxoindoline-6-carboxamide] | ≤ 1000 nM | 1000 to 10000 nM | 1000 to 10000 nM | ≤ 1000 nM | ≤ 1000 nM | – | –
20 | Cc1cccc(CN2C(=O)C(C)(C)c3ccc(C(=O)NCc4c(F)cc(F)cc4F)cc32)c1 [Example 18, 3,3-dimethyl-1-(3-methylbenzyl)-2-oxo-N-(2,4,6-trifluorobenzyl)indoline-6-carboxamide] | ≤ 1000 nM | > 10000 nM | 1000 to 10000 nM | 1000 to 10000 nM | 1000 to 10000 nM | – | –

Reference: US20200172483A1, “HETEROCYCLIC SMALL MOLECULE MODULATORS OF HUMAN STING” (Curadev Pharma Limited, priority 2017, published 2020)
